Measurements published in patent US4313937A, “Method for producing long-lasting analgesic effects of β-endorphin” (priority 1980, dated 1982).
Where “and” joins values, the source holds several entries; their conditions need not be identical. Equal values may be shown once. Entries after “also recorded” stand apart in the source; their conditions may differ.

How the values were obtained:
[1] = system: man and laboratory animals; conditions: intravenously or intramuscularly administered; cited from earlier work
[2] = system: patient; conditions: infusion into the cerebral ventricle; cited from earlier work
[3] = system: patients with chronic intractable pain; experiment: Clinical test of analgesia in patients with chronic intractable pain secondary to metastatic malignancies (visual pain scale); type: in vivo, man
Method: Twenty-three patients with chronic intractable pain in the back, chest, abdomen, rectum and/or thigh regions secondary to metastatic malignancies were selected for this test.
The protocol was explained to them, and informed consent was obtained. Systemic analgesics were withheld for at least 5 hours before administration of β-endorphin. Neurological examinations and electroencephalography (EEG) were performed immediately before and every 2 hours after the injection of β-endorphin. The visual pain scale ("Adv. Neurol.", 1974, 4, 281-283) was explained to each patient; baseline pain intensity was determined 30 min. before the injection.
β-Endorphin acetate used here was prepared to high purity according to the method described in the Biochem. Biophys. Res. Commun., 74, 248-255 (1977). β-Endorphin acetate, 3 mg (equivalent to 2.5 mg of dried free β-endorphin) with 150 mg of glucose and 3 ml of distilled water (in 8 patients, cases 1-8) or with 3 ml of physiological saline and no glucose (in 7 patients, cases 9-15), was injected into the subarachnoid space (cases 1-14) or epidural space (case 15) of the spinal cord by lumbar puncture between the 2nd and 3rd lumbar vertebrae. After the injection of β-endorphin acetate, the intensity of pain, vital signs, central-nervous-system examination, EEG, electrocardiogram (ECG), pulse rate, respiratory rate, blood-gas analysis, and body temperature were monitored. Simple behavioural parameters were also observed.
In a single-randomization design, three physicians administered successively β-endorphin acetate injection or physiological saline (as a placebo) in random order to 5 patients (cases 9-12, 14). All other patients received only β-endorphin acetate, without placebo.
For the purpose of comparison, β-endorphin acetate was injected intramuscularly (cases 18-20), intravenously (cases 16 and 17), and intracerebrally (cases 20-23).
In this test, all the injections of β-endorphin to patients were sterilized through Millipore filter.

[4] = epidural space, 3 mg acetate in 3 ml physiological saline, case 15
[5] = intracerebral (cerebral ventricle), comparison, cases 21-23
[6] = subarachnoid space, 3 mg acetate in 3 ml physiological saline, single patients (cases 9-14)
[7] = subarachnoid space, 3 mg acetate with 150 mg glucose in 3 ml distilled water, single patients (cases 1-8)

In the case of β-Endorphin acetate, the analgesia [1] is given as “no statistically significant analgesia”, the side effects [2] is given as “induces various undersirable side effects” and the “duration of drowsiness after injection” value ([3]; 12 of 15 patients, subarachnoid or epidural space) is given as 1 to 4 h. For the same substance, the “time until pain disappeared after the injection” value ([3]; 13 of the 15 patients, subarachnoid or epidural space) was 1 to 5 min, the “relief of pain reported” value ([3]; all 15 patients, subarachnoid or epidural space of the spinal cord) was “complete relief of pain” and the arousability ([3]; all the patients, subarachnoid or epidural space) was “easily arousable by verbal stimuli”. The “duration of sleep after injection” value ([3]; case No. 5 (in 40 min. after injection) and case No. 7 (in 10 min. after injection)) was 80 min and 110 min, the “perception of venepuncture and light touch” value ([3]; during the period of pain relief) was “remained intact” and the “abnormalities in the ECG or EEG” value ([3]; during the procedure) was “No abnormalities”. For the same substance, the “Pain relief after β-endorphin, Duration” value [3, 4] was 68 h, the “Pain relief after β-endorphin, Onset” value [3, 4] was 2 min and the Remarks ([3]; epidural space, 3 mg acetate in physiological saline, case 15) was “Sleep”. For the same substance, the “duration of relief of pain” value ([3]; injected into cerebral ventricle, all 3 patients) was 8 to 12 h, the “Pain relief after β-endorphin, Duration” value [3, 5] was 10 h and 12 h and 8 h and the “Pain relief after β-endorphin, Onset” value [3, 5] was 3 min and 4 min. For the same substance, the analgesic effect ([3]; intramuscular, 2 of 3 patients) was “no analgesic effect”, the analgesic effect ([3]; intravenous, one of 2 patients) was “no analgesic effect” and the “duration of analgesic effect” value ([3]; intravenous, the other of 2 patients, considered to be placebo effect) was “one”. For the same substance, the “duration of pain relief after the injection, average” value ([3]; subarachnoid or epidural space) was 33.4 h, the “signs of respiratory depression, arterial blood-gas changes, nausea, hypotension, hypothermia, catatonia, or muscle rigidity” value ([3]; subarachnoid or epidural space) was “No signs” and the “discomfort caused by the injection” value ([3]; subarachnoid or epidural space, all the patients) was “no discomfort”. The “Pain relief after β-endorphin, Duration” value [3, 6] was 24 h. and 25 h. and 47 h. and 731/2 and 51 h. and 221/2, the “Pain relief after β-endorphin, Onset” value [3, 6] was 16 min and 2 min and the Remarks ([3]; subarachnoid space, 3 mg acetate in physiological saline, single patients (cases 9-14)) was “Sleep; also recorded: Euphoria; also recorded: somnolence”. The “Pain relief after β-endorphin, Duration” value [3, 7] was 27 h. and 271/2 and 261/2 and 291/2 and 24 h. and 36 h. and 251/2 and 281/2, the “Pain relief after β-endorphin, Onset” value [3, 7] was 5 min and 4 min and 1 min and 2 min and the Remarks ([3]; subarachnoid space, 3 mg acetate with glucose, single patients (cases 1-8)) was “Somnolence; also recorded: Sleep; also recorded: somniloquy; also recorded: Euphoria”. For the same substance, the “duration of sleep after injection” value ([3]; the other 6 of the 8 patients who slept) was 60 to 120 min.
